This note sets out measurements from patent US20260209789A1, “TRIGGER-INDUCIBLE MRNA CIRCULARIZATION” (WESTLAKE UNIVERSITY, priority 2022, published 2026).

The subject of assay [1] is GNCR: NS3a system. Nature of the assay: Grazoprevir-inducible SEAP translation in HEK-293 cells (fold-change, dose-dependence, kinetics vs transcriptional switch). As to conditions: three tandem GNCR and NS3a repeats.
From the text: Optimization of an L7Ae-based grazoprevir-inducible gene switch. (A) Translational regulation by grazoprevir-dependent STIF association. […] (B) Translational regulation by different grazoprevir-dependent NSP3-fusion proteins. […] (C) Translational regulation by different grazoprevir-dependent L7Ae-fusion proteins.
Optimized L7Ae- and MCP-based grazoprevir-inducible gene switch in mammalian cells. (A) Optimized grazoprevir-inducible regulation of SEAP translation. […] (B, C) Dose-dependent grazoprevir-inducible SEAP expression.
Comparative analysis of gene switches based on STIF-based translation and state-of-the-art transcription-centered designs. (A) Kinetics of grazoprevir-inducible SEAP expression. […] (B) Endpoint performance of grazoprevir-induced translational and transcriptional gene switch switches.
Assay [2] has as its system MAPK signaling (phosphorylated ERK2). In words: Phosphorylation-dependent STIF reconstitution sensor (pE59/ERK2), NanoLuc/FLuc. The class given is cell-based. As to conditions: 100 ng/mL recombinant human EGF, 48 h. From the text: FIG. 11. Genetically encoded signalling-specific sensors employing phosphorylation-dependent STIF reconstitution. (A) L7Ae-based STIFs. […] For (−) conditions, pcDNA3.1 (+) was transfected instead of expression vectors. Data presented are mean±SD of relative luciferase activity (NanoLuc/FLuc), n=3 individual experiments. (B) MCP-based STIFs. […] For (−) conditions, pcDNA3.1 (+) was transfected instead of expression vectors. Data presented are mean±SD of relative luciferase activity (NanoLuc/FLuc), n=3 individual experiments.
Translational regulation by trigger-inducible STIF systems can also be engineered in various other ways. […] In this configuration, HEK-293 cells were transfected with an expression vector for SEAP-mRNA containing 16 tandem MS2-box repeats in the 3′-UTR (SEQ-ID NO: 138) and constitutive expression vectors for MCP-LaM8AK47 (SEQ-ID NO: 241) and mCherry-NSP3 (SEQ-ID NO: 250). […] In the future, engineering of similar sensors for other signalling pathways can be readily achieved by exchanging the pE59 (SEQ-ID NO: 110) and ERK2 (SEQ-ID NO: 85) domains by other signalling specific PPI systems. […]

Assay [3] concerns the target T1, (DocS)3 (Acetivibrio thermocellus, UniProt A3DH67).
T1 sequence (A3DH67 with tags, fused parts or gaps): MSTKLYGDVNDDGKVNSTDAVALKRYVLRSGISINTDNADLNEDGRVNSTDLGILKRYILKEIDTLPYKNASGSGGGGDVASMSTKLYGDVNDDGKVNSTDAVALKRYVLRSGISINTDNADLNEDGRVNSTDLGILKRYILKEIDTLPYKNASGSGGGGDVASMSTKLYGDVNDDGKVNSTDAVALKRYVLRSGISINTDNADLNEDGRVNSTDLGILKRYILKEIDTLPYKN
In words: Coh2/DocS-based STIF protein sensor for cytosolic (DocS)3. Particulars: different amounts of pSL244, 48 h.

Assay [4] has as its system STIF-specific target gene mRNA. In words: STIF-mediated translation of reporter mRNA (SEAP, FLuc, EGFP) in HEK-293 cells. The class given is cell-based, human. As to conditions: 48 h; for induction folds between basal and activated states (SEAP): HHR-mediated poly (A)-removal, 24 aptamer repeats. From the text: FIG. 2. Design and validation of different STIF constructs consisting of RNA-binding protein (RBPs) fused to different eIF4F-binding moieties (eIFBP). (A) Synthetic translation initiation factors (STIFs)-mediated translation of L7Ae-specific SEAP-mRNA with shRNA-216-cleavable poly (A). […] (B) STIF-mediated translation of MCP-specific SEAP-mRNA with shRNA-216-cleavable poly (A). […] (C) Correlation between C/D-box-based aptamer region size and STIF-mediated SEAP expression. HEK-293 cells were co-transfected with SEAP expression vectors containing different tandem repeats of the L7Ae-specific C/D-box aptamer ((C/D-box)8, pSL31; (C/D-box)12, pSL81; (C/D-box)16, pSL80; (C/D-box)24, pSL88), an shRNA-216 expression vector (pSL4) and an expression vector for either PABP-L7Ae (ON; pLZ16) or a Coh2-L7Ae protein incapable of binding eIF4F (OFF; pSL44). […] Data presented are mean±SD, n=4 individual experiments. (D) Correlation between MS2-box-based aptamer region size and STIF-mediated SEAP expression. HEK-293 cells were transfected with SEAP expression vectors containing different tandem repeats of the MCP-specific MS2-box aptamer ((MS2-box)8, pSL515; (MS2-box)12, pSL1284; (MS2-box)16, pSL516; (MS2-box)24, pSL468) and constitutive expression vectors for either MCP-NSP3 (ON; pSL95) or an MCP-Coh2 protein incapable of binding eIF4F (OFF; pSL674). […] Data presented are mean±SD, n=4 individual experiments.
FIG. 5. Translational regulation of SEAP-, Firefly Luciferase and EGFP-mRNA with self-cleavable poly (A). (A) STIF-mediated translation of L7Ae-specific SEAP-mRNA with HHR-cleavable poly (A). […] (B) STIF-mediated translation of MCP-specific SEAP-mRNA with HHR-cleavable poly (A). […] (C, D) STIF-mediated regulation at the protein level of gene expression.

A short description of assay [5]: Treatment of type-1 diabetes by oral grazoprevir-inducible insulin expression. As to conditions: T1D mice with grazoprevir-inducible insulin gene therapy, oral 3 mg/kg.
Assay [6] can be described thus: Grazoprevir-inducible SEAP production in mice (hydrodynamic tail vein injection). As to conditions: C57BL/6 mice, hydrodynamically injected gene switch, 3 daily administrations, 24 h after first.
For assay [7], the system named is STIF-specific target gene mRNA. In words: Translational regulation by constitutive bipartite STIF reconstitution (SEAP, NanoLuc) in HEK-293 cells. In kind it is cell-based, human. As to conditions: 48 h. The text has this:
FIG. 8. Translational regulation by spontaneous assembly of bipartite STIFs. (A) Translational regulation through constitutive STIF reconstitution. […] Transfection of pcDNA3.1 (+) instead of NSP3-fusion proteins was used as a negative control. […] (B) Compatibility of STIF-mediated translational regulation with split-complementation approaches. […] For (−) conditions, pcDNA3.1 (+) was transfected instead of expression vectors.
FIG. 9. Translational regulation through constitutive Coh2/DocS-mediated STIF reconstitution. (A) Site-specific translational activation by eIFBP overexpression. HEK-293 cells were (co-) transfected with an expression vector for SEAP-mRNA containing 24 tandem C/D-box-(left panel, pSL355) or MS2-box repeats in the 3′-UTR (right panel, pSL468), constitutive expression vectors for L7Ae (left) or MCP (right) fused to Coh2 (L7Ae-Coh2, pSL83; MCP-Coh2, pSL674) or EGFP (L7Ae-EGFP, pSL1078; MCP-EGFP, pSL435) and constitutive expression vectors for various chimeric Coh2-specific DocS-containing eIFBP fusions (PABP-DocS, pSL47; DocS-eIF4G, pSL87; DocS-eIF4E, pLZ312; DocS-NSP3, pSL66; DocS-VPg, pLZ311). Transfection of pcDNA3.1 (+) instead of DocS- or MCP-expressing vectors was used as a negative control. […] SEAP (left) and NanoLuc levels in culture supernatants (right) were quantified at 48 h post-transfection. […]

Setting [8] is: 20 h after first administration.

Regarding “MCP-(NS3a)3: trigger-inducible STIF regulator”, the “regulation performance (fold-change, dose-dependence, activation kinetics)” value in assay [1] is recorded as “best regulation performance”.

With “L7Ae-(NS3a)3: trigger-inducible STIF regulator”, the “regulation performance (fold-change, dose-dependence, activation kinetics)” value in assay [1] is given as “best regulation performance”.

As to “EGF: Animal-free recombinant human EGF (NSDSECPLSHDGYCLHDGVCMYIEALDKYACNCVVGYIGERCQYRDLKWWELR; Epidermal growth factor; UniProt P01133 971-1023, looked up)”, the “reporter levels (NanoLuc/FLuc) vs MAPK activity” value in assay [2] is “increases in reporter levels correlate with increased MAPK activity”.

With MCP-(Coh2)3: bipartite STIF regulator, in assay [3], the “detection of cytosolic (DocS)3 (SEAP)” value was “in a dose-dependent manner”.

As for MCP-NSP3: STIF fusion protein, the “induction folds between basal and activated states (SEAP)” value in assay [4] was “highest induction folds”. Moreover, the “regulation of other reporter genes (FLuc, EGFP)” value in assay [4] (MCP-specific poly (A)-surrogate) is reported as “could also regulate a variety of other reporter genes”.

Turning to `C=C[C@@H]1C[C@]1(NC(=O)[C@@H]1C[C@@H]2CN1C(=O)[C@H](C(C)(C)C)NC(=O)O[C@@H]1C[C@H]1CCCCCc1nc3ccc(OC)cc3nc1O2)C(=O)NS(=O)(=O)C1CC1.O` [grazoprevir], in assay [5] (setting [8]), the “correction of hyperglycemia (fasting glycemia)” value is “almost complete correction” and the “correction of insulin deficiency (blood insulin levels)” value is reported as “almost complete correction”. Also, in assay [5] (24 h after first administration), the “correction of glucose intolerance (intraperitoneal GTT)” value is reported as “almost complete correction”. The “oral dose sufficient to fully activate the system (SEAP levels in the bloodstream)” value in assay [6] was determined as 3 mg/kg.

As to L7Ae-NSP3: STIF fusion protein, in assay [4], the “induction folds between basal and activated states (SEAP)” value was “highest induction folds”.

For the molecule MCP-Coh2: bipartite STIF regulator, in assay [7], the “target gene translation by spontaneous STIF assembly (SEAP)” value was “modular and effective translational regulation”.
